Assays:
ABUTH [1] = assay: Pre-emergence herbicidal action against ABUTH; assay type: in vivo, Abutilon theophrasti; details: for Pre-emergence action against ABUTH (herbicidal activity): 80 g/ha, scored visually after 3 weeks vs untreated controls (100% = plants have died, 0% = like control plants)
How it was run: (§1)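 Sandy loam pots, seeds covered with soil, then surface-treated with WP or EC formulations at 600–800 l/ha water plus 0.2% wetting agent. Greenhouse, 3 weeks. Percent damage vs untreated controls.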

AMARE [2] = assay: Pre-emergence herbicidal action against AMARE; assay type: in vivo, Amaranthus retroflexus
How it was run: as §1

AVEFA = assay: Pre-emergence herbicidal action against AVEFA; assay type: in vivo, Avena fatua; details: 80 g/ha, pre-emergence
How it was run: as §1

MATIN [3] = assay: Pre-emergence herbicidal action against MATIN; assay type: in vivo, Matricaria inodora
How it was run: as §1

STEME [4] = assay: Pre-emergence herbicidal action against STEME; assay type: in vivo, Stellaria media
Text: Seeds of monocotyledonous and dicotyledonous weed plants and crop plants are laid out in sandy loam soil in wood-fiber pots and covered with soil. The compounds of the invention, formulated in the form of wettable powders (WP) or as emulsion concentrates (EC), are then applied to the surface of the covering soil in the form of an aqueous suspension or emulsion at a water application rate equivalent to 600 to 800 l/ha, with addition of 0.2% wetting agent. After the treatment, the pots are placed in a greenhouse and kept under good growth conditions for the trial plants. The damage to the test plants is scored visually after a test period of 3 weeks by comparison with untreated controls (herbicidal activity in percent (%): 100% activity=the plants have died, 0% activity=like control plants). […] The tables below illustrate, in an illustrative manner, the post-emergence herbicidal action of the compounds of the invention, the herbicidal activity being stated in percent.

VIOTR [5] = assay: Pre-emergence herbicidal action against VIOTR; assay type: in vivo, Viola tricolor
How it was run: as §1

AMARE [6] = assay: Post-emergence herbicidal action against AMARE; assay type: in vivo, Amaranthus retroflexus; details: 20 g/ha, visual assessment about 3 weeks after treatment, 100% = plants have died, 0% = like control plants
How it was run: (§2)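 Herbicidal action is a visual percentage rating (0% = as untreated control, 100% = plants dead) made roughly 3 weeks after treatment. Plants were grown in sandy loam in the greenhouse and treated at the one-leaf stage, 2 to 3 weeks post-sowing. Treatment was a foliar spray of wettable-powder or emulsion-concentrate formulations at 600 to 800 l/ha water plus 0.2% wetting agent.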

STEME [7] = assay: Post-emergence herbicidal action against STEME; assay type: in vivo, Stellaria media
Procedure: Seeds of monocotyledonous and dicotyledonous weed and crop plants are laid out in sandy loam soil in wood-fiber pots, covered with soil and cultivated in a greenhouse under good growth conditions. 2 to 3 weeks after sowing, the test plants are treated at the one-leaf stage. The compounds of the invention, formulated in the form of wettable powders (WP) or as emulsion concentrates (EC), are then sprayed onto the green parts of the plants in the form of an aqueous suspension or emulsion at a water application rate equivalent to 600 to 800 l/ha, with addition of 0.2% wetting agent. After the test plants have been left to stand in the greenhouse under optimal growth conditions for about 3 weeks, the action of the preparations is assessed visually in comparison to untreated controls (herbicidal action in percent (%): 100% activity=the plants have died, 0% activity=like control plants). […] The tables below illustrate, in an illustrative manner, the post-emergence herbicidal action of the compounds of the invention, the herbicidal activity being stated in percent.

VIOTR [8] = assay: Post-emergence herbicidal action against VIOTR; assay type: in vivo, Viola tricolor
How it was run: as §2

ECHCG [9] = assay: Pre-emergence herbicidal action against ECHCG; assay type: in vivo, Echinochloa crus-galli; details: 80 g/ha
How it was run: as §1

SETVI [10] = assay: Pre-emergence herbicidal action against SETVI; assay type: in vivo, Setaria viridis; details: dosage 80 g/ha
How it was run: as §1

VERPE [11] = assay: Pre-emergence herbicidal action against VERPE; assay type: in vivo, Veronica persica; details: dosage 80 g/ha
How it was run: as §1

DIGSA [12] = assay: Pre-emergence herbicidal action against DIGSA; assay type: in vivo, Digitaria sanguinalis
How it was run: as §1

ABUTH [13] = assay: Post-emergence herbicidal action against ABUTH; assay type: in vivo, Abutilon theophrasti; details: visual assessment about 3 weeks after treatment vs untreated controls
How it was run: as §2

ALOMY = assay: Post-emergence herbicidal action against ALOMY; assay type: in vivo, Alopecurus myosuroides; details: dosage 20 g/ha, visual assessment about 3 weeks after treatment vs untreated controls
How it was run: as §2

ECHCG [14] = assay: Post-emergence herbicidal action against ECHCG; assay type: in vivo, Echinochloa crus-galli
How it was run: as §2

MATIN [15] = assay: Post-emergence herbicidal action against MATIN; assay type: in vivo, Matricaria inodora; details: dosage 20 g/ha
How it was run: as §2

PHBPU = assay: Post-emergence herbicidal action against PHBPU; assay type: in vivo, Pharbitis purpurea
How it was run: as §2

SETVI [16] = assay: Post-emergence herbicidal action against SETVI; assay type: in vivo, Setaria viridis
How it was run: as §2

VERPE [17] = assay: Post-emergence herbicidal action against VERPE; assay type: in vivo, Veronica persica; details: 20 g/ha
How it was run: as §2

DIGSA [18] = assay: Post-emergence herbicidal action against DIGSA; assay type: in vivo, Digitaria sanguinalis
How it was run: as §2

[19] = 20 g/ha, scored visually after 3 weeks vs untreated controls, 100% = plants have died, 0% = like control plants
[20] = 80 g/ha, scored visually after 3 weeks vs untreated controls (100% = plants have died, 0% = like control plants)

CCn1nnnc1NC(=O)c1ccc(S(C)(=O)=O)c(C(=O)NC2CC2)c1Cl [Example 2-125]
Pre-emergence action against ABUTH (herbicidal activity) (ABUTH [1]): 100%
Pre-emergence action against AMARE in % (AMARE [2]; [19]): 80%
Pre-emergence action against AMARE in % (AMARE [2]; [20]): 100%
Pre-emergence action against AVEFA in % (AVEFA): 100%
Pre-emergence action against MATIN in % (MATIN [3]; dosage 20 g/ha): 80%
Pre-emergence action against MATIN in % (MATIN [3]; dosage 80 g/ha): 100%
Pre-emergence action against STEME in % (STEME [4]; dosage 20 g/ha): 80%
Pre-emergence action against STEME in % (STEME [4]; dosage 80 g/ha): 100%
Pre-emergence action against VIOTR in % (VIOTR [5]; dosage 80 g/ha): 100%
Post-emergence action at 20 g/ha against AMARE in % (AMARE [6]): 80%
Post-emergence action against STEME in % (STEME [7]; 20 g/ha): 80%
Post-emergence action against VIOTR in % (VIOTR [8]; 5 g/ha): 100%
Post-emergence action against VIOTR in % (VIOTR [8]; 20 g/ha): 100%

CNC(=O)c1c(C(F)(F)F)ccc(C(=O)Nc2nnco2)c1SC [Example 5-58]
Pre-emergence action against ABUTH (herbicidal activity) (ABUTH [1]): 100%
Pre-emergence action against ABUTH (herbicidal activity in percent) (ABUTH [1]; dosage 20 g/ha, scored visually after 3 weeks vs untreated controls, 100% = plants have died, 0% = like control plants): 90%
Pre-emergence action against AMARE in % (AMARE [2]; [19]): 100%
Pre-emergence action against AMARE in % (AMARE [2]; [20]): 100%
Pre-emergence action against AVEFA in % (AVEFA): 80%
Pre-emergence action against ECHCG in % (ECHCG [9]): 90%
Pre-emergence action against MATIN in % (MATIN [3]; dosage 20 g/ha): 90%
Pre-emergence action against MATIN in % (MATIN [3]; dosage 80 g/ha): 100%
Pre-emergence action against SETVI in % (SETVI [10]): 100%
Pre-emergence action against STEME in % (STEME [4]; dosage 20 g/ha): 100%
Pre-emergence action against STEME in % (STEME [4]; dosage 80 g/ha): 100%
Pre-emergence action against VERPE in % (VERPE [11]): 80%
Pre-emergence action against VIOTR in % (VIOTR [5]; dosage 20 g/ha): 90%
Pre-emergence action against VIOTR in % (VIOTR [5]; dosage 80 g/ha): 100%
Pre-emergence action against DIGSA in % (DIGSA [12]; dosage 20 g/ha): 90%
Pre-emergence action against DIGSA in % (DIGSA [12]; dosage 80 g/ha): 100%
Post-emergence action against ABUTH in % (ABUTH [13]; dosage 5 g/ha): 90%
Post-emergence action against ABUTH in % (ABUTH [13]; dosage 20 g/ha): 90%
Post-emergence action against ALOMY in % (ALOMY): 80%
Post-emergence action at 20 g/ha against AMARE in % (AMARE [6]): 90%
Post-emergence action against ECHCG in % (ECHCG [14]; dosage 5 g/ha): 80%
Post-emergence action against ECHCG in % (ECHCG [14]; dosage 20 g/ha): 90%
Post-emergence action against MATIN in % (MATIN [15]): 80%
Post-emergence action against PHBPU in % (PHBPU; dosage 5 g/ha): 80%
Post-emergence action against PHBPU in % (PHBPU; dosage 20 g/ha): 90%
Post-emergence action against SETVI in % (SETVI [16]; dosage 5 g/ha): 80%
Post-emergence action against SETVI in % (SETVI [16]; dosage 20 g/ha): 100%
Post-emergence action against STEME in % (STEME [7]; 20 g/ha): 90%
Post-emergence action against STEME in % (STEME [7]; dosage 5 g/ha): 90%
Post-emergence action against VERPE in % (VERPE [17]): 80%
Post-emergence action against VIOTR in % (VIOTR [8]; 5 g/ha): 80%
Post-emergence action against VIOTR in % (VIOTR [8]; 20 g/ha): 80%
Post-emergence action against DIGSA in % (DIGSA [18]; 5 g/ha): 90%
Post-emergence action against DIGSA (DIGSA [18]; 20 g/ha): 100%

From patent US12655116B2, “Substituted isophthalic acid diamides” (Bayer Aktiengesellschaft, priority 2020, dated 2026)
